How the values were obtained:
rhFUCA1 = rhFUCA1 (Homo sapiens (Human), UniProt P04066); experiment: In vitro fucosidase inhibition (4MU-FUC fluorescence); type: biochemical; settings: 1 ng/mL rhFUCA1, 640 nM 4MU-FUC, pH 4.5, 37° C., 30 minutes
Description: Fucosidase inhibition was assessed by preparing a reaction mixture of 50 mM phosphate-citrate pH 4.5, 5 mM MgCl2, 640 nM 4-methylumbelliferyl-alpha-L-fucopyranoside (4MU-FUC), 1 ng/mL rhFUCA1 (R&D Systems), and compound II, III, or IV:
Reactions (100 μL) were incubated at 37° C. for 30 minutes and then quenched with the same volume of 600 mM citrate-carbonate buffer, pH 9. Fluorescence was measured by excitation at 360 nm and emission at 450 nm.

HepG2 cells [1] = experiment: Metabolic labeling with tagged-fucose, flow cytometry; type: cell-based, human; settings: for Mean Green Fluorescence (GRN-HLog): HepG2, 24 hours compound then 48 hours fucose alkyne, Alexa Fluor 488 Azide; for Fold over vehicle: mean green fluorescence, HepG2
Description: Perturbations in glycoprotein metabolism were assayed by growing HepG2 cells without fucosidase inhibitors, or with compound II, III, or IV (see Example 2) for 24 hours, and then adding (3S,4R,5R,6S)-6-ethynyltetrahydro-2H-pyran-2,3,4,5-tetrayl tetra acetate, a per-acetylated analog of fucose containing an alkyne moiety in place of the 5′-methyl group (Click-iT™ Fucose Alkyne, Molecular Probes, Eugene, Oreg.) for an additional 48 hours. Cells were fixed, permeabilized, washed, and stained with Alexa Fluor 488 Azide to orthogonally label glycoproteins incorporating the fucose analog. Cells were then analyzed for fluorescence using a Guava 6HT-2L flow cytometer (ThermoFisher).

HepG2 cells [2] = experiment: Cytotoxicity in HepG2 cells (XTT assay); type: cell-based, human; settings: HepG2, 24 or 48 hours, compared to compound II
Description: To assess the compounds' cytotoxicity in cells, HepG2 cells were seeded in triplicate in 96-well plates at 1.5e4 cells/well in Minimum Essential Media, 10% FBS and 2 mM L-glutamine. Plated cells were allowed to recover for 48 hours. Medium was then replaced with the same media containing dilutions of compound II or IV (see Example 2), incubated for 24 or 48 hours, and subjected to XTT assay to measure viability (ATCC).

fucosidase = settings: Li et al. 2008; cited from earlier work

rhFUCA1, sequence (P04066 32-466): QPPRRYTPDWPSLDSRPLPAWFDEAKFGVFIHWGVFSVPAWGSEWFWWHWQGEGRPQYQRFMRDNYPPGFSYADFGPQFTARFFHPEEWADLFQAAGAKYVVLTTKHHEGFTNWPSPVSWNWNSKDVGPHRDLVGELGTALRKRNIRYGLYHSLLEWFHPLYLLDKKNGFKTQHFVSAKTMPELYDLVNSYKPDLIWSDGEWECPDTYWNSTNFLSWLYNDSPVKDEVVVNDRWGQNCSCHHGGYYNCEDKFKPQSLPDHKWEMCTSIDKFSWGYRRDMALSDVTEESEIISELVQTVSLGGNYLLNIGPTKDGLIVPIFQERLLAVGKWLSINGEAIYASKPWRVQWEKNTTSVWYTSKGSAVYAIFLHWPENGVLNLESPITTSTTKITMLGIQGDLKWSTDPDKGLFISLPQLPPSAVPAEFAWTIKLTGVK

IC50 (rhFUCA1) [µM]	Structure (SMILES)	Mean Green Fluorescence (GRN-HLog) (HepG2 cells [1])	Fold over vehicle (HepG2 cells [1])	cytotoxicity (XTT viability) (HepG2 cells [2])	potency of fucosidase inhibition (fucosidase)
1.5	C[C@@H]1N/C(=C\C(=O)Nc2cccc3c2C(=O)c2ccccc2-3)[C@@H](O)[C@H](O)[C@@H]1O [Compound IV]	12900	4.56	reduced cytotoxicity at higher inhibitor concentrations compared to compound II	
0.059	O=C(NC[C@@H]1N[C@@H](CF)[C@@H](O)[C@@H](O)[C@@H]1O)c1cccc2c1C(=O)c1ccccc1-2 [Compound III]	1220	0.43		
	CCCCN1C[C@H](O)[C@@H](O)[C@H](O)[C@H](C(=O)O)C1 [Faz, (3R,4R,5S,6S)-1-butyl-4,5,6-trihydroxyazepane-3-carboxylic acid]				low nanomolar range

Source: patent publication US10308607B2, “Fucosidase inhibitors” (HORIZON ORPHAN LLC, priority 2015, dated 2019)
